Experiments:
[1] = target: T1, wt human TYK2, catalytic site (Homo sapiens, UniProt P29597); test: HTRF KinEASE assay, TYK2; assay type: biochemical; settings: 1 μM ATP; read-out: IC50, Activity Toward TYK2
T1 construct: wt human TYK2, catalytic site; purchased SignalChem
T1 sequence (P29597 897-1176 limits assumed): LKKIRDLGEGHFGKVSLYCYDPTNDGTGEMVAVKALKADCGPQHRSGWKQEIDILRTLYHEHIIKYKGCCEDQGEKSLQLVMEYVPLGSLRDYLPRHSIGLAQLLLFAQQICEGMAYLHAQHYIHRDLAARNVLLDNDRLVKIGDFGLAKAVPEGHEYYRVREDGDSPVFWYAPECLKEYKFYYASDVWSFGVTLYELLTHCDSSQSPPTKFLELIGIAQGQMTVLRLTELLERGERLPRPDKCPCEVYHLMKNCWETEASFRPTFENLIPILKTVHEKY
Summary of the method: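 Kinase reaction run at room temperature for at least 30 min: 2 nM TYK2 with 1 μM ATP, or 1 nM JAK2 with 100 μM ATP, each with 1 μM biotin-TK substrate. Phosphorylation detected by HTRF (60 min antibody/XL665) and evaluated from emission ratios.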

[2] = target: T2, wt human JAK1, catalytic site (Homo sapiens, UniProt P23458); test: HTRF KinEASE assay, JAK1; assay type: biochemical; settings: 2.5 μM ATP; read-out: IC50, Activity Toward JAK1
T2 construct: wt human JAK1, catalytic site; purchased ThermoFisher
T2 sequence (P23458 875-1153 limits assumed): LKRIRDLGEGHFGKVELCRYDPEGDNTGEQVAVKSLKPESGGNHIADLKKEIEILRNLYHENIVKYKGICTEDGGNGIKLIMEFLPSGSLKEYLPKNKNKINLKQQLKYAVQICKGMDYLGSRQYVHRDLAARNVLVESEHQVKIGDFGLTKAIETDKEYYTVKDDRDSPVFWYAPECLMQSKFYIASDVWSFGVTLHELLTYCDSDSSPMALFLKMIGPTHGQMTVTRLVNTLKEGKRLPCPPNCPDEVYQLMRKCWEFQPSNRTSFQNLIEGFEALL
Summary of the method: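 Compounds in DMSO dilution were mixed with kinase, biotin-TK substrate and ATP and reacted for ≥30 min at room temperature. Detection reagents (antibody, streptavidin-XL665) were read 60 min later as HTRF, with emission ratios analysed per KinEASE protocol.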

Row | Compound | IC50 [1] | IC50 [2]
1 | Cn1cncc1-c1ccc(Nc2cn(-c3c(Cl)cccc3Cl)nc2C(N)=O)cc1 [compound 204, 1-(2,6-dichlorophenyl)-4-((4-(1-methyl-1H-imidazol-5-yl)phenyl)amino)-1H-pyrazole-3-carboxamide] | 10 to 100 nM | 100 to 1000 nM
2 | NC(=O)c1nn(-c2c(F)cccc2Cl)cc1Nc1ccc(-n2cc3c(n2)CCOC3)cc1 [compound 209, 1-(2-chloro-6-fluorophenyl)-4-((4-(6,7-dihydropyrano[4,3-c]pyrazol-2(4H)-yl)phenyl)amino)-1H-pyrazole-3-carboxamide] | 10 to 100 nM | 100 to 1000 nM
3 | Cc1cnnc(-c2ccc(Nc3cn(-c4c(Cl)cccc4Cl)nc3C(N)=O)cc2)c1C [compound 213, 1-(2,6-dichlorophenyl)-4-((4-(4,5-dimethylpyridazin-3-yl)phenyl)amino)-1H-pyrazole-3-carboxamide] | 10 to 100 nM | 100 to 1000 nM
4 | Cn1nc(C(F)(F)F)nc1-c1ccc(Nc2cn(-c3c(Cl)cccc3Cl)nc2C(N)=O)cc1 [compound 215, 1-(2,6-dichlorophenyl)-4-((4-(1-methyl-3-(trifluoromethyl)-1H-1,2,4-triazol-5-yl)phenyl)amino)-1H-pyrazole-3-carboxamide] | < 10 nM | 10 to 100 nM
5 | Cc1cc(C)n(-c2ccc(Nc3cn(-c4c(Cl)cccc4Cl)nc3C(N)=O)cc2)n1 [compound 216, 1-(2,6-dichlorophenyl)-4-((4-(3,5-dimethyl-1H-pyrazol-1-yl)phenyl)amino)-1H-pyrazole-3-carboxamide] | 10 to 100 nM | 10 to 100 nM
6 | Cc1cnn(-c2ccc(Nc3cn(-c4c(Cl)cccc4Cl)nc3C(N)=O)cc2)c1C [compound 218, 1-(2,6-dichlorophenyl)-4-((4-(4,5-dimethyl-1H-pyrazol-1-yl)phenyl)amino)-1H-pyrazole-3-carboxamide] | 100 to 1000 nM | 100 to 1000 nM
7 | Cc1nn(-c2ccc(Nc3cn(-c4c(Cl)cccc4Cl)nc3C(N)=O)cc2)c(C)c1C [compound 224, 1-(2,6-dichlorophenyl)-4-((4-(3,4,5-trimethyl-1H-pyrazol-1-yl)phenyl)amino)-1H-pyrazole-3-carboxamide] | 100 to 1000 nM | 100 to 1000 nM
8 | NC(=O)c1nn(-c2c(Cl)cccc2Cl)cc1Nc1ccc(C(=O)N2CCCC2)cn1 [compound 226, 1-(2,6-dichlorophenyl)-4-((5-(pyrrolidine-1-carbonyl)pyridin-2-yl)amino)-1H-pyrazole-3-carboxamide] | 10 to 100 nM | 100 to 1000 nM
9 | CCc1ccn(-c2ccc(Nc3cn(-c4c(Cl)cccc4Cl)nc3C(N)=O)cc2)n1 [compound 240, 1-(2,6-dichlorophenyl)-4-((4-(3-ethyl-1H-pyrazol-1-yl)phenyl)amino)-1H-pyrazole-3-carboxamide] | 100 to 1000 nM | 100 to 1000 nM
10 | CCc1ccnn1-c1ccc(Nc2cn(-c3c(Cl)cccc3Cl)nc2C(N)=O)cc1 [compound 241, 1-(2,6-dichlorophenyl)-4-((4-(5-ethyl-1H-pyrazol-1-yl)phenyl)amino)-1H-pyrazole-3-carboxamide] | 10 to 100 nM | < 10 nM
11 | Cn1c(-c2ccc(Nc3cn(-c4c(Cl)cccc4Cl)nc3C(N)=O)cc2)nnc1C(F)(F)F [compound 242, 1-(2,6-dichlorophenyl)-4-((4-(4-methyl-5-(trifluoromethyl)-4H-1,2,4-triazol-3-yl)phenyl)amino)-1H-pyrazole-3-carboxamide] | 10 to 100 nM | 10 to 100 nM
12 | Cc1nnnn1-c1ccc(Nc2cn(-c3c(Cl)cccc3Cl)nc2C(N)=O)cc1 [compound 243, 1-(2,6-dichlorophenyl)-4-((4-(5-methyl-1H-tetrazol-1-yl)phenyl)amino)-1H-pyrazole-3-carboxamide] | < 10 nM | 10 to 100 nM
13 | Cc1c(C#N)cnn1-c1ccc(Nc2cn(-c3c(Cl)cccc3Cl)nc2C(N)=O)cc1 [compound 253, 4-((4-(4-cyano-5-methyl-1H-pyrazol-1-yl)phenyl)amino)-1-(2,6-dichlorophenyl)-1H-pyrazole-3-carboxamide] | 100 to 1000 nM | 100 to 1000 nM
14 | NC(=O)c1nn(-c2c(Cl)cccc2Cl)cc1Nc1ccc(C(=O)N2CC(F)(F)C(F)(F)C2)cc1 [compound 254, 1-(2,6-dichlorophenyl)-4-((4-(3,3,4,4-tetrafluoropyrrolidine-1-carbonyl)phenyl)amino)-1H-pyrazole-3-carboxamide] | < 10 nM | 10 to 100 nM
15 | CC(C)Oc1ccc(Nc2cn(-c3c(Cl)cccc3Cl)nc2C(N)=O)cc1 [compound 261, 1-(2,6-dichlorophenyl)-4-((4-isopropoxyphenyl)amino)-1H-pyrazole-3-carboxamide] | 100 to 1000 nM | 100 to 1000 nM
16 | CC(C)c1ccn(-c2ccc(Nc3cn(-c4c(Cl)cccc4Cl)nc3C(N)=O)cc2)n1 [compound 263, 1-(2,6-dichlorophenyl)-4-((4-(3-isopropyl-1H-pyrazol-1-yl)phenyl)amino)-1H-pyrazole-3-carboxamide] | 100 to 1000 nM | 100 to 1000 nM
17 | CN1CCn2c(nnc2-c2ccc(Nc3cn(-c4c(Cl)cccc4Cl)nc3C(N)=O)cc2)C1 [compound 269, 1-(2,6-dichlorophenyl)-4-((4-(7-methyl-5,6,7,8-tetrahydro-[1,2,4]triazolo[4,3-a]pyrazin-3-yl)phenyl)amino)-1H-pyrazole-3-carboxamide] | 10 to 100 nM | 10 to 100 nM
18 | CCS(=O)(=O)Nc1ccc(Nc2cn(-c3c(Cl)cccc3Cl)nc2C(N)=O)cc1 [compound 270, 1-(2,6-dichlorophenyl)-4-((4-(ethylsulfonamido)phenyl)amino)-1H-pyrazole-3-carboxamide] | 10 to 100 nM | 10 to 100 nM
19 | CS(=O)(=O)Nc1ccc(Nc2cn(-c3c(Cl)cccc3Cl)nc2C(N)=O)cc1 [compound 271, 1-(2,6-dichlorophenyl)-4-((4-(methylsulfonamido)phenyl)amino)-1H-pyrazole-3-carboxamide] | 10 to 100 nM | 10 to 100 nM
20 | CN(C)CCc1nnnn1-c1ccc(Nc2cn(-c3c(Cl)cccc3Cl)nc2C(N)=O)cc1 [compound 273, 1-(2,6-dichlorophenyl)-4-((4-(5-(2-(dimethylamino)ethyl)-1H-tetrazol-1-yl)phenyl)amino)-1H-pyrazole-3-carboxamide] | 10 to 100 nM | 10 to 100 nM
21 | Cc1nc(C(F)(F)F)nn1-c1ccc(Nc2cn(-c3c(Cl)cccc3Cl)nc2C(N)=O)cc1 [compound 275, 1-(2,6-dichlorophenyl)-4-((4-(5-methyl-3-(trifluoromethyl)-1H-1,2,4-triazol-1-yl)phenyl)amino)-1H-pyrazole-3-carboxamide] | < 10 nM | 10 to 100 nM
22 | CCc1nc(C(F)(F)F)nn1-c1ccc(Nc2cn(-c3c(Cl)cccc3Cl)nc2C(N)=O)cc1 [compound 277, 1-(2,6-dichlorophenyl)-4-((4-(5-ethyl-3-(trifluoromethyl)-1H-1,2,4-triazol-1-yl)phenyl)amino)-1H-pyrazole-3-carboxamide] | < 10 nM | 100 to 1000 nM
23 | COCc1nc(C(F)(F)F)nn1-c1ccc(Nc2cn(-c3c(Cl)cccc3Cl)nc2C(N)=O)cc1 [compound 281, 1-(2,6-dichlorophenyl)-4-((4-(5-(methoxymethyl)-3-(trifluoromethyl)-1H-1,2,4-triazol-1-yl)phenyl)amino)-1H-pyrazole-3-carboxamide] | < 10 nM | 100 to 1000 nM

— patent publication US20230373985A1 (Origenis Gmbh, priority 2020, published 2023)
